# Target: PHD2 (Homo sapiens, UniProt Q9GZT9)
# Experiment: PHD2 RF-MS hydroxylation assay
# Assay type: biochemical
# Settings: not given
# Procedure: In brief, cDNA encoding for the catalytic domain of tPHD2 (181-426 residues) was cloned into the pET28a(+)/pET24a(+) vectors (Novagen), to enable production of tPHD2 (residues 181-426) protein with/without an N-terminal His6-tag. The tPHD2 (residues 181-426) encoding construct was transformed into the Escherichia coli BL21 DE3 cell line; protein production was induced with 0.5 mM […] (3-5 hr at 28° C.). […] The protein was exchanged into 50 mM Tris-HCl buffer (pH 7.5) and concentrated to % 40 mg/ml.
# Tris(hydroxymethyl)aminomethane was from Fisher. […] All inhibition assays were carried out in 384-well polypropylene plates (Greiner Bio-One). […] PHD2 protein was prepared at a concentration of 300 nM in assay buffer and 25 μl dispensed across each 384-well assay plate. […] After loading the C4 SPE was washed with 0.1% formic acid in water to remove non-volatile buffer salts and then peptide was eluted from the SPE with 85% acetonitrile, 15% water containing 0.1% formic acid onto the mass spectrometer. Peptide charge states were monitored in positive mode. […] IC50 values were determined from non-linear regression plots using GraphPad prism.
# SAR studies for PHD2 inhibition were carried out on the compounds of the invention. Compounds were screened against PHD2 using the RF-MS hydroxylation assay.
# PHD2, sequence (Q9GZT9 181-426): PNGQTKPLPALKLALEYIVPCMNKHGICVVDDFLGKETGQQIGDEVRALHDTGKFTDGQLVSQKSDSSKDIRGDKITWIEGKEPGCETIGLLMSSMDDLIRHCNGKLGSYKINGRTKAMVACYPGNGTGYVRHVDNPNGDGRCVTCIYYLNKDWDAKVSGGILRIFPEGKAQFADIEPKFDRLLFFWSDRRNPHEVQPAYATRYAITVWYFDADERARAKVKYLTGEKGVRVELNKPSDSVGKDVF
row,Compound,IC50
1,"O=C(NCc1ccc(-c2ccccc2)cc1)c1ccc(-n2cccn2)cc1O [Compound 16, N-([1,1′-biphenyl]-4-ylmethyl)-2-hydroxy-4-(1H-pyrazol-1-yl)benzamide]",> 10 µM
2,"O=C(NCc1ccc(-c2ccccc2)cc1)c1cnc(-n2cccn2)nc1 [Compound 20, N-([1,1′-Biphenyl]-4-ylmethyl)-2-(1H-pyrazol-1-yl)pyrimidine-5-carboxamide]",> 10 µM
3,"O=C(NCc1ccc(-c2ccccc2)cc1)c1ccc(-n2cccn2)nc1 [Compound 22, N-([1,1′-Biphenyl]-4-ylmethyl)-6-(1H-pyrazol-1-yl)nicotinamide]",> 10 µM
4,"O=C(NCC1CCCCC1)c1cnc(-n2cccn2)cc1O [Compound 44, N-(Cyclohexylmethyl)-4-hydroxy-6-(1H-pyrazol-1-yl)nicotinamide]",> 10 µM
5,COc1cc(-n2cc(C(=O)NCc3ccc(-c4ccccc4)cc3)cn2)ncc1C#N [Compound 93],> 10 µM
6,N#Cc1ccc(-n2cc(C(=O)NCc3ccc(-c4ccccc4)cc3)cn2)nc1 [Compound 97],> 10 µM
7,O=C(O)c1ccnc(-n2cc(C(=O)NCc3ccc(-c4ccccc4)cc3)cn2)c1 [Compound 103],> 10 µM
8,O=C(Nc1ccc(-c2ccccc2)cc1)c1cnn(-c2cc(O)ccn2)c1 [Compound 108],> 10 µM

# System: HIF1-α in Hep3B cells
# Experiment: Immunoblots of Hep3B cells (HIF1-α protein levels)
# Assay type: cell-based
# Design: dose or concentration left out as unconfirmed
# Settings: 3 hours
# Procedure: Cells were grown to 90% confluency.
# Hep3B cells were treated with compounds 117, 119, 122 and 123 of the invention (Examples 93, 95, 98 and 99) at 100 µM (A) and 20 µM (B) PHD inhibitors for 3 hours.
row,Compound,HIF-1α stabilisation (immunoblot)
1,"O=C(NCc1ccc(-c2ccccc2)cc1)c1cnc2c(cnc3ccnn32)c1O [Compound 117, N-([1,1′-Biphenyl]-4-ylmethyl)-6-hydroxypyrazolo[1,5-a]pyrido[3,2-e]pyrimidine-7-carboxamide]",stabilise HIF-1α
2,"O=C(Nc1ccc(-c2ccccc2)cc1)c1cnc2c(cnc3ccnn32)c1O [Compound 119, N-([1,1′-Biphenyl]-4-yl)-6-hydroxypyrazolo[1,5-a]pyrido[3,2-e]pyrimidine-7-carboxamide]",stabilise HIF-1α
3,"Cc1cc2nc(C)c3c(O)c(C(=O)NCc4ccc(-c5ccccc5)cc4)cnc3n2n1 [Compound 122, N-([1,1′-Biphenyl]-4-ylmethyl)-6-hydroxy-2,5-dimethylpyrazolo[1,5-a]pyrido[3,2-e]pyrimidine-7-carboxamide]",stabilise HIF-1α
4,"Cc1cc2nc(C)c3c(O)c(C(=O)NCc4ccc(C(F)(F)F)cc4)cnc3n2n1 [Compound 123, 6-Hydroxy-2,5-Dimethyl-N-(4-(trifluoromethyl)benzyl)pyrazolo[1,5-a]pyrido[3,2-e]pyrimidine-7-carboxamide]",stabilise HIF-1α

# System: not given
# Experiment: not given
# Settings: mouse, in vivo, ip
row,Compound,adverse effects
1,"O=C(NCC1CCC(C(F)(F)F)CC1)c1cnc(-n2cccn2)cc1O (centres unmarked) [Compound 68, 4-Hydroxy-6-(1H-pyrazol-1-yl)-N-((4-(trifluoromethyl)cyclohexyl)methyl)nicotinamide]",no adverse effects

# System: not listed separately
# Experiment: In vivo blood counts in C57BL/6 mice
# Settings: twice daily IP, 8 days
# Procedure: Values are shown pre-treatment, and 4 and 8 days after treatment.
# Blood samples were taken either pre-treatment, on the 4th day into treatment or on the 8th day of treatment. Blood samples were analysed using Celltac Alpha MEK-6500K.
# Samples were taken either pre-treatment, on the 4th day into treatment or on the 8th day of treatment. Blood samples were analysed using Celltac Alpha MEK-6500K.
row,Compound,adverse effects
1,O=C(O)CNC(=O)C1C(=O)N(C2CCCCC2)C(=O)N(C2CCCCC2)C1=O [Daprodustat],no adverse effects

# — patent US20260226055A1, “PYRAZOLE DERIVATIVES AS PHD INHIBITORS” (Oxford University Innovation Limited, priority 2023, published 2026)
